According to patent US20180237441A1, “Chemical Compounds” (GlaxoSmithKline Intellectual Property (No.2) Limited, priority 2015, published 2018):

What follows are compounds tested against T1, PERK (Homo sapiens, UniProt Q9NZJ5) (assay: PERK enzyme assay (HTRF)). Conditions: 500 μM ATP; at least one experimental run; read-out: PERK Enzyme (500 μM ATP) IC50.
T1 sequence (Q9NZJ5 30-1116): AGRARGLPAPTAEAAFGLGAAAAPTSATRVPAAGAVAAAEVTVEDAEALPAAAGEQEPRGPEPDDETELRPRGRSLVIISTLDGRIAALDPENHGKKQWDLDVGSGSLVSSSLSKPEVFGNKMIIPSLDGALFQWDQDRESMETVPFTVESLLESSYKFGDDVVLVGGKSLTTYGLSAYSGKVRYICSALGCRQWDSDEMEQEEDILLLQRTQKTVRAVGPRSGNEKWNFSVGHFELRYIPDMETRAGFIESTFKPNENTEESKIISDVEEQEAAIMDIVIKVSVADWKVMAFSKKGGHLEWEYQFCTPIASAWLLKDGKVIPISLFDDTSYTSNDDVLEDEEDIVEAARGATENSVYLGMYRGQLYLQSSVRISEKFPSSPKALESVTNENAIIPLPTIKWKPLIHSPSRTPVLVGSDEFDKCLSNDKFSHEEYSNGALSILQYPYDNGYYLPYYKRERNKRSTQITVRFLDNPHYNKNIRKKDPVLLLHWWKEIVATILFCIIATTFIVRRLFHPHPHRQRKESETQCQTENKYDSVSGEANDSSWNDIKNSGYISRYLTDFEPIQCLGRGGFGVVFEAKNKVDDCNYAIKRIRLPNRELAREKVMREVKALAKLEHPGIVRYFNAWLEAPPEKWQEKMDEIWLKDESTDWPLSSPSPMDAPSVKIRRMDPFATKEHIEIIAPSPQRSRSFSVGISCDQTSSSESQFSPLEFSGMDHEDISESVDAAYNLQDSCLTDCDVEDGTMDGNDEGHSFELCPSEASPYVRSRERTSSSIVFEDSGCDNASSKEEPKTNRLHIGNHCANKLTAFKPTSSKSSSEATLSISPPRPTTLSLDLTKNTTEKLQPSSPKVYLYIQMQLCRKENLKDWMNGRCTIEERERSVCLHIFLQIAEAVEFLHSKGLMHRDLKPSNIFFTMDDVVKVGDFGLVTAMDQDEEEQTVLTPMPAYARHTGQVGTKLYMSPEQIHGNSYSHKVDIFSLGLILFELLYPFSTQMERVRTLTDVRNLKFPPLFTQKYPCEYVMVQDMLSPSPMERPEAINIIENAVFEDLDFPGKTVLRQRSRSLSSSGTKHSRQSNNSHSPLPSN
Assay type: biochemical
Method in brief: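 GST-PERK (0.75 nM final) pre-incubated 30–60 min with compound (≤1% DMSO) in HEPES pH 7.5/CHAPS/MgCl2/DTT, then 500 μM ATP and 40 nM biotin-eIF2α added for 60 min. EDTA quench; HTRF detection of phospho-eIF2α (Eu anti-rabbit/streptavidin-APC) read after 2 h; IC50 from concentration series.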

Row | IC50 | Structure (SMILES)
1 | 30.1 nM | CCN1C(=O)N(c2ccc(-c3cn(C)c4ncnc(N)c34)c(F)c2)CC1c1cc(F)cc(F)c1 (single isomer, unassigned) [Example 172, 1-(4-(4-amino-7-methyl-7H-pyrrolo[2,3-d]pyrimidin-5-yl)-3-fluorophenyl)-4-(3,5-difluorophenyl)-3-ethylimidazolidin-2-one]
2 | 903 nM | CC(C)CN1C(=O)N(c2ccc(-c3cn(C)c4ncnc(N)c34)c(F)c2)CC1c1cc(F)ccc1F (centres unmarked) [Example 14, 1-(4-(4-amino-7-methyl-7H-pyrrolo[2,3-d]pyrimidin-5-yl)-3-fluorophenyl)-4-(2,5-difluorophenyl)-3-isobutylimidazolidin-2-one]
3 | 3640 nM | Cn1cc(-c2ccc(N3CC(c4cc(F)ccc4F)N(Cc4ccccc4)C3=O)cc2F)c2c(N)ncnc21 (centres unmarked) [Example 20, 1-(4-(4-amino-7-methyl-7H-pyrrolo[2,3-d]pyrimidin-5-yl)-3-fluorophenyl)-3-benzyl-4-(2,5-difluorophenyl)imidazolidin-2-one]
4 | 74.2 nM | CN1C(=O)N(c2ccc(-c3cn(C)c4ncnc(N)c34)c(F)c2)CC1c1cc(F)cc(F)c1 (centres unmarked) [Example 25, 1-(4-(4-amino-7-methyl-7H-pyrrolo[2,3-d]pyrimidin-5-yl)-3-fluorophenyl)-4-(3,5-difluorophenyl)-3-methylimidazolidin-2-one]

Same assay, conditions: PERK Enzyme (500 μM ATP) IC50; at least one experimental run; read-out: PERK Activity

Row | IC50 | Structure (SMILES)
5 | < 100 nM | CCN1C(=O)N(c2ccc(-c3cn(C)c4ncnc(N)c34)c(F)c2)CC1c1cc(F)cc(F)c1 (single isomer, unassigned) [Example 171, 1-(4-(4-amino-7-methyl-7H-pyrrolo[2,3-d]pyrimidin-5-yl)-3-fluorophenyl)-4-(3,5-difluorophenyl)-3-ethylimidazolidin-2-one]
6 | < 100 nM | CCN1C(=O)N(c2ccc(-c3cn(C)c4ncnc(N)c34)c(F)c2)CC1c1cc(F)cc(F)c1 (single isomer, unassigned) [Example 172, 1-(4-(4-amino-7-methyl-7H-pyrrolo[2,3-d]pyrimidin-5-yl)-3-fluorophenyl)-4-(3,5-difluorophenyl)-3-ethylimidazolidin-2-one]
7 | < 100 nM | CCN1C(=O)N(c2ccc(-c3cn(C4CC4)c4ncnc(N)c34)c(F)c2)CC1c1cc(F)cc(F)c1 (single isomer, unassigned) [Example 173, 1-(4-(4-amino-7-cyclopropyl-7H-pyrrolo[2,3-d]pyrimidin-5-yl)-3-fluorophenyl)-4-(3,5-difluorophenyl)-3-ethylimidazolidin-2-one]
8 | < 100 nM | CCN1C(=O)N(c2ccc(-c3cn(C4CC4)c4ncnc(N)c34)c(F)c2)CC1c1cc(F)cc(F)c1 (single isomer, unassigned) [Example 174, 1-(4-(4-amino-7-cyclopropyl-7H-pyrrolo[2,3-d]pyrimidin-5-yl)-3-fluorophenyl)-4-(3,5-difluorophenyl)-3-ethylimidazolidin-2-one]
9 | 100 to 1000 nM | Cn1cc(-c2ccc(N3CC(c4cc(F)cc(F)c4)CC3=O)cc2F)c2c(N)ncnc21 (centres unmarked) [Example 4, 1-(4-(4-Amino-7-methyl-7H-pyrrolo[2,3-d]pyrimidin-5-yl)-3-fluorophenyl)-4-(3,5-difluorophenyl)pyrrolidin-2-one]
10 | 100 to 1000 nM | Cc1cc(N2CC(c3cc(F)cc(F)c3)CC2=O)ccc1-c1cn(C)c2ncnc(N)c12 (centres unmarked) [Example 5, 1-(4-(4-Amino-7-methyl-7H-pyrrolo[2,3-d]pyrimidin-5-yl)-3-methylphenyl)-4-(3,5-difluorophenyl)pyrrolidin-2-one]
11 | > 1000 nM | Cn1cc(-c2ccc(N3CC(C4CCCCC4)CC3=O)cc2F)c2c(N)ncnc21 (centres unmarked) [Example 6, 1-(4-(4-Amino-7-methyl-7H-pyrrolo[2,3-d]pyrimidin-5-yl)-3-fluorophenyl)-4-cyclohexyl pyrrolidin-2-one]
12 | < 100 nM | CN1C(=O)N(c2ccc(-c3cn(C)c4ncnc(N)c34)c(F)c2)CC1c1ccccn1 (centres unmarked) [Example 7, 1-(4-(4-amino-7-methyl-7H-pyrrolo[2,3-d]pyrimidin-5-yl)-3-fluorophenyl)-3-methyl-4-(pyridin-2-yl)imidazolidin-2-one]
13 | 100 to 1000 nM | CC(C)CN1C(=O)N(c2ccc(-c3cn(C)c4ncnc(N)c34)c(F)c2)CC1c1cc(F)ccc1F (centres unmarked) [Example 14, 1-(4-(4-amino-7-methyl-7H-pyrrolo[2,3-d]pyrimidin-5-yl)-3-fluorophenyl)-4-(2,5-difluorophenyl)-3-isobutylimidazolidin-2-one]
14 | < 100 nM | Cc1nc(N)c2c(-c3ccc(N4CC(c5cc(F)ccc5F)N(C)C4=O)cc3F)cn(C)c2n1 (centres unmarked) [Example 15, 1-(4-(4-amino-2,7-dimethyl-7H-pyrrolo[2,3-d]pyrimidin-5-yl)-3-fluorophenyl)-4-(2,5-difluorophenyl)-3-methylimidazolidin-2-one]
15 | 100 to 1000 nM | CN1C(=O)N(c2ccc(-c3cn(C)c4ncnc(N)c34)c(F)c2)CC1c1cc(F)cc(Cl)c1 (centres unmarked) [Example 16, 1-(4-(4-amino-7-methyl-7H-pyrrolo[2,3-d]pyrimidin-5-yl)-3-fluorophenyl)-4-(3-chloro-5-fluorophenyl)-3-methylimidazolidin-2-one]
16 | 100 to 1000 nM | CCN1C(=O)N(c2ccc(-c3cn(CC(F)F)c4ncnc(N)c34)c(F)c2)CC1c1cc(F)ccc1F (centres unmarked) [Example 17, 1-(4-(4-amino-7-(2,2-difluoroethyl)-7H-pyrrolo[2,3-d]pyrimidin-5-yl)-3-fluorophenyl)-4-(2,5-difluorophenyl)-3-ethylimidazolidin-2-one]
17 | 100 to 1000 nM | CN1C(=O)N(c2ccc(-c3cn(C)c4ncnc(N)c34)c(F)c2)CC1c1cc(F)ccc1F (centres unmarked) [Example 18, 1-(4-(4-amino-7-methyl-7H-pyrrolo[2,3-d]pyrimidin-5-yl)-3-fluorophenyl)-4-(2,5-difluorophenyl)-3-methylimidazolidin-2-one]
18 | > 1000 nM | CCN1C(=O)N(c2ccc(-c3cn(C)c4nc(C)nc(N)c34)c(F)c2)CC1c1cc(F)ccc1F (centres unmarked) [Example 19, 1-(4-(4-amino-2,7-dimethyl-7H-pyrrolo[2,3-d]pyrimidin-5-yl)-3-fluorophenyl)-4-(2,5-difluorophenyl)-3-ethylimidazolidin-2-one]
19 | > 1000 nM | Cn1cc(-c2ccc(N3CC(c4cc(F)ccc4F)N(Cc4ccccc4)C3=O)cc2F)c2c(N)ncnc21 (centres unmarked) [Example 20, 1-(4-(4-amino-7-methyl-7H-pyrrolo[2,3-d]pyrimidin-5-yl)-3-fluorophenyl)-3-benzyl-4-(2,5-difluorophenyl)imidazolidin-2-one]
20 | 100 to 1000 nM | Cn1cc(-c2ccc(N3CC(c4cc(F)ccc4F)NC3=O)cc2F)c2c(N)ncnc21 (centres unmarked) [Example 21, 1-(4-(4-amino-7-methyl-7H-pyrrolo[2,3-d]pyrimidin-5-yl)-3-fluorophenyl)-4-(2,5-difluorophenyl)imidazolidin-2-one]
21 | 100 to 1000 nM | CCN1C(=O)N(c2ccc(-c3cn(C)c4ncnc(N)c34)c(F)c2)CC1c1cccc(Cl)c1F (centres unmarked) [Example 22, 1-(4-(4-amino-7-methyl-7H-pyrrolo[2,3-d]pyrimidin-5-yl)-3-fluorophenyl)-4-(3-chloro-2-fluorophenyl)-3-ethylimidazolidin-2-one]
22 | 100 to 1000 nM | CCN1C(=O)N(c2ccc(-c3cn(C)c4ncnc(N)c34)c(F)c2)CC1c1ccc(F)cc1F (centres unmarked) [Example 23, 1-(4-(4-amino-7-methyl-7H-pyrrolo[2,3-d]pyrimidin-5-yl)-3-fluorophenyl)-4-(2,4-difluorophenyl)-3-ethylimidazolidin-2-one]
23 | 100 to 1000 nM | CN1C(=O)N(c2ccc(-c3cn(C)c4ncnc(N)c34)c(F)c2)CC1c1ccc(F)cc1F (centres unmarked) [Example 24, 1-(4-(4-amino-7-methyl-7H-pyrrolo[2,3-d]pyrimidin-5-yl)-3-fluorophenyl)-4-(2,4-difluorophenyl)-3-methylimidazolidin-2-one]
24 | < 100 nM | CN1C(=O)N(c2ccc(-c3cn(C)c4ncnc(N)c34)c(F)c2)CC1c1cc(F)cc(F)c1 (centres unmarked) [Example 25, 1-(4-(4-amino-7-methyl-7H-pyrrolo[2,3-d]pyrimidin-5-yl)-3-fluorophenyl)-4-(3,5-difluorophenyl)-3-methylimidazolidin-2-one]
25 | 100 to 1000 nM | CN1C(=O)N(c2ccc(-c3cn(C)c4ncnc(N)c34)c(F)c2)CC1c1cccc(Cl)c1F (centres unmarked) [Example 26, 1-(4-(4-amino-7-methyl-7H-pyrrolo[2,3-d]pyrimidin-5-yl)-3-fluorophenyl)-4-(3-chloro-2-fluorophenyl)-3-methylimidazolidin-2-one]
26 | 100 to 1000 nM | CCN1C(=O)N(c2ccc(-c3cn(C)c4ncnc(N)c34)c(F)c2)CC1c1cc(F)cc(Cl)c1 (centres unmarked) [Example 27, 1-(4-(4-amino-7-methyl-7H-pyrrolo[2,3-d]pyrimidin-5-yl)-3-fluorophenyl)-4-(3-chloro-5-fluorophenyl)-3-ethylimidazolidin-2-one]
27 | 100 to 1000 nM | Cn1cc(-c2ccc(N3CC(C4CCCC4)CC3=O)cc2F)c2c(N)ncnc21 (centres unmarked) [Example 28, 1-(4-(4-amino-7-methyl-7H-pyrrolo[2,3-d]pyrimidin-5-yl)-3-fluorophenyl)-4-cyclopentylpyrrolidin-2-one]
28 | 100 to 1000 nM | Cn1cc(-c2ccc(N3CC(c4cc(F)cc(F)c4)CC3=O)cc2)c2c(N)ncnc21 (centres unmarked) [Example 29, 1-(4-(4-amino-7-methyl-7H-pyrrolo[2,3-d]pyrimidin-5-yl)phenyl)-4-(3,5-difluorophenyl)pyrrolidin-2-one]
29 | < 100 nM | Cc1cc(C)cc(C2CC(=O)N(c3ccc(-c4cn(C)c5ncnc(N)c45)c(F)c3)C2)c1 (centres unmarked) [Example 30, 1-(4-(4-amino-7-methyl-7H-pyrrolo[2,3-d]pyrimidin-5-yl)-3-fluorophenyl)-4-(3,5-dimethylphenyl)pyrrolidin-2-one]
